In publication PMC3669377, “Purification, Cloning, Characterization and Essential Amino Acid Residues Analysis of a New ι-Carrageenase from Cellulophaga sp. QY3” (PLoS ONE, 2013):

Biological target: T1, CgiA_Ce (Cellulophaga sp. QY3, UniProt M1EU02)
T1 construct: gene cgiA; native secreted enzyme purified from culture supernatant; mature, putative signal peptide M1-S41 removed (precursor 492 residues); monomer
T1 sequence (M1EU02 42-492): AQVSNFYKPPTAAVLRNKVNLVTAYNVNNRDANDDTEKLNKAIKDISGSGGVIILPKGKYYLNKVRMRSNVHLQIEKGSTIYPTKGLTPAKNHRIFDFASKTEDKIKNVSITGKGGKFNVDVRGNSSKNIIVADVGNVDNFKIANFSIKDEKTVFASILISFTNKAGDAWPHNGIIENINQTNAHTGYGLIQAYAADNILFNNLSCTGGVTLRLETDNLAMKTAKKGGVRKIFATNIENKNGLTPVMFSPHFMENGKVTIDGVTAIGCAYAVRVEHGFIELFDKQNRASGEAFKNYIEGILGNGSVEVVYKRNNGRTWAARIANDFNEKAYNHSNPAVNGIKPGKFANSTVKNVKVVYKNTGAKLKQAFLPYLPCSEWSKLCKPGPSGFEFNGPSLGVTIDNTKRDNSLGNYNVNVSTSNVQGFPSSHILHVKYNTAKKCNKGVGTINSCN
Test: FACE analysis of hydrolysis products
Type: biochemical
Conditions: pH 7.0, 45°C; 10 mg/ml substrate; minimum substrate; products neo-iota-carrabiose and neo-iota-carratetraose

With `O=S(=O)(O)O[C@@H]1[C@H](O[C@H]2O[C@@H]3CO[C@@H]([C@H]3O[C@@H]3O[C@H](CO)[C@H](OS(=O)(=O)O)[C@H](O[C@H]4O[C@@H]5CO[C@@H]([C@H]5O)[C@H]4OS(=O)(=O)O)[C@H]3O)[C@H]2OS(=O)(=O)O)[C@@H](O)[C@H](O[C@@H]2[C@@H]3OC[C@H]2O[C@H](O[C@H]2[C@@H](OS(=O)(=O)O)[C@@H](CO)OC(O)[C@@H]2O)[C@@H]3OS(=O)(=O)O)O[C@@H]1CO` (stereo partly shown) [DP6, neo-ι-carrahexaose] the “FACE analysis of hydrolysis products” value was “Neo-ι-carrahexaose was the shortest chain that can be recognized and cleaved by CgiA_Ce”.
